Target: T1, Cystathionine β-synthase (CBS) (Homo sapiens, UniProt P35520)
T1 sequence (P35520 1-408): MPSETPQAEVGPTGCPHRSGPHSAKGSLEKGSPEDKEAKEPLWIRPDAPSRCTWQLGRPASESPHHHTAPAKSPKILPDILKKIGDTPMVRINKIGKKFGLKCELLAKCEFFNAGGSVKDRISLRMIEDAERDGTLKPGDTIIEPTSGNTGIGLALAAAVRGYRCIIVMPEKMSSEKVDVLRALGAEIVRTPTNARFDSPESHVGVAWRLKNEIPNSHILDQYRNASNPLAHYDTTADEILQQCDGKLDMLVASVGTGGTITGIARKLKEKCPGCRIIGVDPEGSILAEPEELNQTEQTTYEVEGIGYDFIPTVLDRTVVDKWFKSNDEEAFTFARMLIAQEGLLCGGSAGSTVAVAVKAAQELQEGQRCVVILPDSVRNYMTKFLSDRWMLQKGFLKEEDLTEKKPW
Assay: Loss of purified enzyme activity
Assay type: biochemical

- IC50: ~150 µM
Structure (SMILES): O=NOO [peroxynitrite, oxoperoxonitrate(1-)]

Source: paper PMC2783175 (Archives of biochemistry and biophysics, 2009)
